Blank lines part the entries; values can stand above or below the compound they belong to. Active and inactive are the calls of the source. No cut-off for these calls is given here.
Columns and labels:
[1] = Inhibition of Fam-labeled BimBH3 peptide binding to N-terminal 6His-tagged human recombinant HSP70 NBD (1 to 383 residues) expressed in Escherichia coli BL21 (DE3) assessed as inhibition constant incubated for 24 hrs by fluorescence polarization assay
[2] = Inhibition of Bim (unknown origin)- N-terminal 6His-tagged human recombinant HSP70 NBD (1 to 383 residues) expressed in Escherichia coli BL21 (DE3) protein protein interaction assessed as suppression of BimBH3-stimulated HSP70 ATPase activity
[3] = tested on: BV-173; test: Induction of apoptosis in human BV-173 cells incubated for 24 hrs by annexin V/PI staining based flow cytometry analysis; type: functional, cell-based; details: BV-173, 24 h
[4] = tested on: K562; test: Induction of apoptosis in human K562 cells incubated for 24 hrs by annexin V/PI staining based flow cytometry analysis; type: functional, cell-based; details: K562, 24 h
[5] = Induction of apoptosis in human Imatinib-resistant K562-R3 cells incubated for 24 hrs by annexin V/PI staining based flow cytometry analysis; type: functional; details: Imatinib-resistant K562-R3 cell
[6] = tested on: HEK293; test: Induction of apoptosis in human HEK293 cells assessed as apoptotic rate at 15 uM incubated for 24 hrs by annexin V/PI staining based flow cytometry analysis relative to control; type: toxicity, cell-based; details: hek293, 24 h
[7] = tested on: BaF3; test: Induction of apoptosis in mouse BaF3 cells assessed as apoptotic rate at 15 uM incubated for 24 hrs by annexin V/PI staining based flow cytometry analysis relative to control; type: toxicity, cell-based; details: baf3, 24 h
[8] = organism: Homo sapiens; test: Inhibition of N-terminal 6His-tagged human recombinant HSP70 NBD (1 to 383 residues) expressed in Escherichia coli BL21 (DE3) ATPase activity
[9] = Induction of apoptosis in human HEK293 cells incubated for 24 hrs by annexin V/PI staining based flow cytometry analysis; type: toxicity, cell-based
[10] = Induction of apoptosis in mouse BaF3 cells incubated for 24 hrs by annexin V/PI staining based flow cytometry analysis; type: toxicity, cell-based
[11] = tested on: K562; test: Inhibition of HSP70-Bag3 protein protein interaction in human K562 cells at 10 uM incubated for 12 hrs by Co-IP analysis; type: cell-based
[12] = Inhibition of Fam-labeled BimBH3 peptide binding to wild type N-terminal 6His-tagged human recombinant HSP70 NBD (1 to 383 residues) expressed in Escherichia coli BL21 (DE3) assessed as dissociation constant incubated for 24 hrs by fluorescence polarization assay
[13] = Inhibition of Fam-labeled BimBH3 peptide binding to N-terminal 6His-tagged human recombinant HSP70 NBD (1 to 383 residues) Y149A mutant expressed in Escherichia coli BL21 (DE3) assessed as dissociation constant incubated for 24 hrs by fluorescence polarization assay
[14] = Inhibition of Fam-labeled BimBH3 peptide binding to N-terminal 6His-tagged human recombinant HSP70 NBD (1 to 383 residues) D225T mutant expressed in Escherichia coli BL21 (DE3) assessed as dissociation constant incubated for 24 hrs by fluorescence polarization assay
[15] = Inhibition of Fam-labeled BimBH3 peptide binding to N-terminal 6His-tagged human recombinant HSP70 NBD (1 to 383 residues) Y149A mutant expressed in Escherichia coli BL21 (DE3) assessed as inhibition constant incubated for 24 hrs by fluorescence polarization assay
[16] = Inhibition of Fam-labeled BimBH3 peptide binding to N-terminal 6His-tagged human recombinant HSP70 NBD (1 to 383 residues) D225T mutant expressed in Escherichia coli BL21 (DE3) assessed as inhibition constant incubated for 24 hrs by fluorescence polarization assay
[17] = tested on: K562; test: Inhibition of HSP70-Bim protein protein interaction in human K562 cells incubated for 12 hrs by Co-IP analysis; type: cell-based; details: dose 0-5 µM
[18] = tested on: K562; test: Inhibition of HSP70-Bim protein protein interaction in human K562 cells assessed as decrease in AKT protein expression at 2 uM incubated for 12 hrs by Western blot analysis; type: cell-based
[19] = tested on: K562; test: Inhibition of HSP70-Bim protein protein interaction in human K562 cells assessed as decrease in EIF4e protein expression at 2 uM incubated for 12 hrs by Western blot analysis; type: cell-based
[20] = tested on: K562; test: Inhibition of HSP70-Bim protein protein interaction in human K562 cells assessed as decrease in AKT phosphorylation at 2 uM incubated for 12 hrs by Western blot analysis; type: cell-based
[21] = tested on: K562; test: Inhibition of HSP70-Bim protein protein interaction in human K562 cells assessed as decrease in EIF4e phosphorylation at 2 uM incubated for 12 hrs by Western blot analysis; type: cell-based
[22] = tested on: K562; test: Induction of apoptosis in HSP70 shRNA transfected human K562 cells assessed as increase in Annexin V+ cells at 2 uM incubated for 24 hrs by Annexin V/PI staining based flow cytometry analysis; type: functional, cell-based
[23] = tested on: K562; test: Induction of apoptosis in HSP70 shRNA transfected human K562 cells assessed as increase in cleaved PARP level at 2 uM incubated for 24 hrs by Western blot analysis; type: functional, cell-based
[24] = tested on: K562; test: Induction of apoptosis in Bim shRNA transfected human K562 cells assessed as increase in Annexin V+ cells at 2 uM incubated for 24 hrs by Annexin V/PI staining based flow cytometry analysis; type: functional, cell-based
[25] = tested on: K562; test: Induction of apoptosis in Bim shRNA transfected human K562 cells assessed as increase in cleaved PARP level at 2 uM incubated for 24 hrs by Western blot analysis; type: functional, cell-based
[26] = Cmax in Sprague-Dawley rat at 3 mg/kg, iv measured upto 24 hrs by LC-MS/MS analysis; type: ADME, organism-based; design: dose 3 mg/kg, time < 24 hrs, route iv; details: in vivo
[27] = Tmax in Sprague-Dawley rat at 3 mg/kg, iv measured upto 24 hrs by LC-MS/MS analysis; type: ADME, organism-based; details: in vivo
[28] = Half life in Sprague-Dawley rat at 3 mg/kg, iv measured upto 24 hrs by LC-MS/MS analysis; type: ADME, organism-based; details: in vivo
[29] = Clearance in Sprague-Dawley rat at 3 mg/kg, iv measured upto 24 hrs by LC-MS/MS analysis; type: ADME, organism-based; details: in vivo
[30] = AUCt in Sprague-Dawley rat at 3 mg/kg, iv measured upto 24 hrs by LC-MS/MS analysis; type: ADME, organism-based; design: time < 24 hrs, dose 3 mg/kg, route iv; details: in vivo
[31] = tested on: Mus musculus; test: (§1) In vivo disruption of HSP70-Bim protein protein interaction in BALB/c nu/nu mouse xenografted with Bcr-Abl independent human Imatinib-resistant K562-R1 cells assessed as destabilization of EIF4e protein level at 2 mg/kg, ip administered every day for 14 days and measured on day 15 by immunoblot analysis; type: functional, organism-based; details: time 15.0 day
[32] = tested on: Imatinib-resistant K562-R1; test: Antitumor activity against Bcr-Abl independent human Imatinib-resistant K562-R1 cells xenografted in BALB/c nu/nu mouse assessed as reduction in tumor growth at 2 mg/kg, ip administered every day for 14 days and measured on day 15; type: functional, organism-based; details: time 15.0 day
[33] = Antitumor activity against Bcr-Abl independent human Imatinib-resistant K562-R1 cells xenografted in BALB/c nu/nu mouse assessed as reduction in tumor weight by measuring T/C ratio at 2 mg/kg, ip administered every day for 14 days and measured on day 15; type: functional; details: time 14 day
[34] = Toxicity in BALB/c nu/nu mouse xenografted with Bcr-Abl independent human Imatinib-resistant K562-R1 cells assessed as reduction in body weight at 2 mg/kg, ip administered every day for 14 days and measured every 3 days; type: organism-based; details: in vivo, 336 h, time 14 day
[35] = tested on: Mus musculus; test: In vivo disruption of HSP70-Bim protein protein interaction in BALB/c nu/nu mouse xenografted with Bcr-Abl independent human Imatinib-resistant K562-R1 cells at 2 mg/kg, ip administered every day for 14 days and measured on day 15 by Co-IP analysis; type: functional, organism-based; details: time 15.0 day
[36] = tested on: Mus musculus; test: as §1, with “AKT” for “EIF4e”; type: functional, organism-based; details: time 15.0 day

SMILES: CCNCCNC1=C(C#N)C(=O)c2cccc3c(SC4CCCCC4)ccc1c23
Ki [1]: 0.72 µM
inhibition [2]: Active

SMILES: COC(=O)CCNC1=C(C#N)C(=O)c2cccc3c(Sc4ccc(Br)cc4)ccc1c23
Ki [1]: 2.5 µM
inhibition [2]: Active

SMILES: COC(=O)CCNC1=C(C#N)C(=O)c2cccc3c(Sc4ccc(N)cc4)ccc1c23
Ki [1]: > 20 µM
inhibition [2]: Active

SMILES: N#CC1=C(NCCN2CCN(Cc3ccccc3)CC2)c2ccc(SC3CCCCC3)c3cccc(c23)C1=O
Ki [1]: > 20 µM
inhibition [2]: Active

SMILES: CCn1c(=O)/c(=C2\Sc3ccccc3N2C)s/c1=C\c1cccc[n+]1CC
inhibition [11]: Active

SMILES: COC(=O)CCNC1=C(C#N)C(=O)c2cccc3c(SC4CCCCC4)ccc1c23
Ki [1]: 2.6 µM
inhibition [2]: Active
EC50 [3]: 6.1 µM
EC50 [4]: 9.4 µM
EC50 [5]: 1700 nM
Activity [6]: < 10%
Activity [7]: < 10%

SMILES: COC(=O)CCNC1=C(C#N)C(=O)c2cccc3c(SC4CCCC4)ccc1c23
Ki [1]: 2.2 µM
inhibition [2]: Active

SMILES: N#CC1=C(NCCC(=O)O)c2ccc(SC3CCCCC3)c3cccc(c23)C1=O
Ki [1]: > 20 µM
inhibition [2]: Active

SMILES: COC(=O)CCNC1=C(C#N)C(=O)c2cccc3c(Sc4cccc(N)c4)ccc1c23
Ki [1]: 18.9 µM
inhibition [2]: Active

SMILES: COC(=O)CCNC1=C(C#N)C(=O)c2cccc3c(Sc4ccc(C)cc4)ccc1c23
Ki [1]: 3.4 µM
inhibition [2]: Active

SMILES: N#CC1=C(NCCC(=O)NC2CCCCC2)c2ccc(SC3CCCCC3)c3cccc(c23)C1=O
Ki [1]: 11 µM
inhibition [2]: Active

Now from value to compound, other results behind:

inhibition [2]: Active
EC50 [3]: 1.1 µM
EC50 [4]: 2.4 µM
EC50 [5]: 450 nM
SMILES: CN(C)CCNC1=C(C#N)C(=O)c2cccc3c(SC4CCCCC4)ccc1c23
Ki [1]: 0.57 µM
Activity [6]: > 10%
Activity [7]: < 10%

inhibition [2]: Active
SMILES: COC(=O)CCNC1=C(C#N)C(=O)c2cccc3c(SCCc4ccccc4)ccc1c23
Ki [1]: > 20 µM

inhibition [8]: Active
EC50 [3]: 5.8 µM
EC50 [4]: 7.8 µM
EC50 [5]: 8500 nM
SMILES: N#Cc1ccc(COC[C@H]2O[C@@H](n3c(NCc4ccc(Cl)c(Cl)c4)nc4c(N)ncnc43)[C@H](O)[C@@H]2O)cc1
Ki [1]: > 20 µM
EC50 at 24 h [9]: 7.7 µM
EC50 at 24 h [10]: 5.5 µM

inhibition [2]: Active
SMILES: N#CC1=C(NCCC(=O)NCc2ccccc2)c2ccc(SC3CCCCC3)c3cccc(c23)C1=O
Ki [1]: 14.4 µM

inhibition [2]: Active
SMILES: COC(=O)CCNC1=C(C#N)C(=O)c2cccc3c(Sc4ccc(C(C)(C)C)cc4)ccc1c23
Ki [1]: > 20 µM

inhibition [2]: Active
SMILES: CCCCSc1ccc2c3c(cccc13)C(=O)C(C#N)=C2NCCC(=O)OC
Ki [1]: 14.5 µM

inhibition [2]: Active
SMILES: COC(=O)CCNC1=C(C#N)C(=O)c2cccc3c(Sc4ccc(C(C)C)cc4)ccc1c23
Ki [1]: 16.2 µM

inhibition [2]: Active
SMILES: COC(=O)CCNC1=C(C#N)C(=O)c2cccc3c(Sc4ccccc4)ccc1c23
Ki [1]: 4.5 µM

inhibition [2]: Active
SMILES: CCN(CC)CCNC1=C(C#N)C(=O)c2cccc3c(SC4CCCC4)ccc1c23
Ki [1]: 0.32 µM

inhibition [2]: Active
SMILES: COC(=O)CCNC1=C(C#N)C(=O)c2cccc3c(SCCO)ccc1c23
Ki [1]: > 20 µM

inhibition [2]: Active
SMILES: CCCCNC(=O)CCNC1=C(C#N)C(=O)c2cccc3c(SC4CCCCC4)ccc1c23
Ki [1]: 0.88 µM

inhibition [2]: Active
SMILES: N#CC1=C(NCCN2CCOCC2)c2ccc(SC3CCCCC3)c3cccc(c23)C1=O
Ki [1]: 1.8 µM

IC50 [2]: 15.8 µM
inhibition [2]: Dose-Dependent Effect
EC50 [3]: 0.62 µM
EC50 [4]: 1.3 µM
EC50 [5]: 340 nM
Cmax [26]: 2300 ng/mL
Tmax [27]: 1 h
half-life [28]: 312 min
clearance [29]: 4.1 mL/min/kg
AUC(0-t) at 24 h [30]: 12200 ng·h/mL
SMILES: CCN(CC)CCNC1=C(C#N)C(=O)c2cccc3c(SC4CCCCC4)ccc1c23
Ki [1]: 0.25 µM
Kd [12]: 210 nM
Kd [13]: 1580 nM
Kd [14]: 3.12 µM
Ki [15]: 2720 nM
Ki [16]: 5.15 µM
Activity [6]: < 10%
Activity [7]: < 10%
inhibition [17]: Dose-Dependent Effect
inhibition [11]: inactive
inhibition [18]: Active
inhibition [19]: Active
inhibition [20]: Active
inhibition [21]: Active
Activity [22]: inactive
Activity [23]: inactive
Activity [24]: inactive
Activity [25]: inactive
Activity [31]: Active
Activity [32]: Active
T/C [33]: 33.51%
Activity [34]: Non-Toxic
Activity [35]: Active
Activity [36]: Active

inhibition [2]: Active
SMILES: CCOC(=O)CN1CCN(CCNC2=C(C#N)C(=O)c3cccc4c(SC5CCCCC5)ccc2c34)CC1
Ki [1]: 4.1 µM
